Measurements from ChEMBL document CHEMBL1949541, “Discovery of 7-arylsulfonyl-1,2,3,4, 4a,9a-hexahydro-benzo[4,5]furo[2,3-c]pyridines: identification of a potent and selective 5-HT₆ receptor antagonist showing activity in rat social recognition test” (Bioorg Med Chem Lett, 2012).

Legend:
Rattus norvegicus [1] = assay: Ratio of drug uptake in brain to plasma in rat at 5 mg/kg, po
[2] = Oral bioavailability in rat at 5 mg/kg; assay type: ADME, organism-based; conditions: in vivo
Rattus norvegicus [3] = assay: Half life in rat at 1 mg/kg, iv; assay type: ADME, organism-based; parameters: dose 1 mg/kg, route intravenous; conditions: in vivo
[4] = molecular target: 5-hydroxytryptamine receptor 6 (Rattus norvegicus, UniProt P31388); assay: Displacement of [3H]LSD from rat recombinant 5HT6 receptor
Chain of 5-hydroxytryptamine receptor 6 (Rattus norvegicus, UniProt P31388) (P31388 whole entry): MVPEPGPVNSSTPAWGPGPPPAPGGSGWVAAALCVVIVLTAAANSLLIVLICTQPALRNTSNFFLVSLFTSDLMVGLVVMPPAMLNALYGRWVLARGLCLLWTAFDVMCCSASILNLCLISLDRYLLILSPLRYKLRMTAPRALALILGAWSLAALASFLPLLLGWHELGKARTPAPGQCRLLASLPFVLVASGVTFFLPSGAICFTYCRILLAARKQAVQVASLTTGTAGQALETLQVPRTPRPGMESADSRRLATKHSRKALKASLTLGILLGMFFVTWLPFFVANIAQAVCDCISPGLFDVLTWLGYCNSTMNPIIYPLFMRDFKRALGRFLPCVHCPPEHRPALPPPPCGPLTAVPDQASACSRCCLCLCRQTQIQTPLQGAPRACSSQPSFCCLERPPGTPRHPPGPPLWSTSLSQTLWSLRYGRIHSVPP

[5] = molecular target: T1, 5-hydroxytryptamine receptor 6 (Homo sapiens, UniProt P50406); assay: Antagonist activity at human 5HT6 receptor expressed in human astrocytoma cells assessed as inhibition of cAMP production; assay type: functional, cell-based
T1 sequence (P50406 whole entry): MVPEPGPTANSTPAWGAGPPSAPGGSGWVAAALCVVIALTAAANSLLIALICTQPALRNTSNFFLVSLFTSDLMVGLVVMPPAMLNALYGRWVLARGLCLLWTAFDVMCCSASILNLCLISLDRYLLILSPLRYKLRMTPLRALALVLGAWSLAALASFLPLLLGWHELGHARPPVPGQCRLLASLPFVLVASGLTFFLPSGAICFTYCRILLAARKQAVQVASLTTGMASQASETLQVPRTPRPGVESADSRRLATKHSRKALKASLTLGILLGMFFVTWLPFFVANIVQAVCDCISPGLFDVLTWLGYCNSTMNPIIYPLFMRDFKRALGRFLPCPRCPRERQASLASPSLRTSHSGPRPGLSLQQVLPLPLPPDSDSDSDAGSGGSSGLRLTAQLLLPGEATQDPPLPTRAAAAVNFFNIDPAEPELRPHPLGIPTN

[6] = molecular target: T1, 5-hydroxytryptamine receptor 6; assay: Displacement of [3H]LSD from human recombinant 5HT6 receptor
Rattus norvegicus [7] = assay: Volume of distribution in rat at 1 mg/kg, iv; assay type: ADME, organism-based; parameters: dose 1 mg/kg, route intravenous; conditions: in vivo

BPR (Rattus norvegicus [1]): 2.29
bioavailability [2]: 11%
t1/2 (Rattus norvegicus [3]): 24 min
Ki [4]: 55 nM
IC50 [5]: 45 nM
Ki [6]: 12 nM
Vd (Rattus norvegicus [7]): 1 L/kg
Compound: COc1cc(OC(C)C)cc(S(=O)(=O)c2ccc3c(c2)O[C@H]2CNCC[C@@H]32)c1.Cl (single isomer, unassigned; enantiomer 2)
